Values joined by “and” are separate entries in the source; they are usually repeats but may differ in a detail not shown here. Equal values may be shown once. Read-outs that look alike come from different tables or passages of the source.
Legend:
[1] = system: T4 lymphocytes (CEM cell line); assay: NCI in vitro anti-HIV screen, growth inhibition of uninfected CEM cells (XTT); assay type: cell-based; conditions: for IC50: read-out: IC50 (50% inhibitory concentration); for cytotoxicity (statement): NCI anti-HIV screen, CEM cells
Procedure: (§1) The assay includes the killing of T4 lymphocytes by HIV. Pursuant to the test, small amounts of HIV are added to cells, and a complete cycle of virus reproduction is necessary to obtain the required cell killing. Agents that interact with virions, cells, or virus gene-products to interfere with viral activities will protect cells from cytolysis. The system is thus designed to detect anti-HIV activity. However, compounds that degenerate or are rapidly metabolized in the culture conditions may not show activity in this screen. All tests are compared with at least one positive (e.g., AZT-treated) control done at the same time under identical conditions.
(§2) 1. The candidate agent is dissolved in dimethyl sulfoxide (unless otherwise instructed), then diluted 1:200 in cell culture medium. Further dilutions (half-log10) are prepared before adding to 96-well microtiter plates.
(§3) 2. T4 lymphocytes (CEM cell line) are exposed to HIV at a virus-to-cell ratio of approximately 0.05 and are plated along with non-infected control cells into drug-containing wells or wells with medium alone.
(§4) 3. Cultures are incubated at 37° in a 5% carbon dioxide atmosphere for 6 days.
(§5) 4. The tetrazolium salt, XTT, is added to all wells, and cultures are incubated to allow formazan color development by viable cells.
(§6) 5. […] are analyzed spectrophotometrically to quantitate formazan production and, in addition, are viewed microscopically for detection of viable cells and confirmation of protective activity.
(§7) 6. Drug-treated virus-infected cells are compared with drug-treated non-infected cells and with other appropriate controls (untreated infected and untreated non-infected cells, drug-containing wells without cells, etc.) on the same plate.
(§8) 7. Data are reviewed in comparison with other tests performed at the same time, and a determination about activity is made.
Survival values of this parameter less then 50% are considered acceptable in the current protocol.

HIV = assay: NCI in vitro anti-HIV screen (XTT soluble-formazan assay, protection of HIV-infected CEM cells); assay type: cell-based; conditions: for EC50: approximate values, one value per run; for anti-HIV effect (statement): NCI anti-HIV screen, in vitro, CEM cells; for TI50 (IC/EC), therapeutic index: ratio IC50/EC50 of the same run
Text: as §1, with “The National Cancer Institute's procedure for testing for agents active against Human Immunodeficiency Virus (HIV) (Weislow, O. W. et al, "New soluble-formazan assay for HIV-1 cytopathic effects: application to high-flux screening of synthetic and natural products for AIDS-antiviral activity," J. Natl. Cancer Inst., 81, 577-586, 1989) is designed to detect agents acting at any stage of the virus reproductive cycle. The assay” for “The assay”
as §2, §3, §4, §5, §6, §7, §8
Approximate values for 50% effective concentration (EC50) (protection in infected cells), 50% inhibitory concentration (IC50) and the therapeutic index (IC50 /EC50) have been calculated for each test and are provided in the tables of each Example.
Examples 1, 6 and 8 compounds, respectively, against the measured test values expressed as a percentage of the uninfected, untreated control values. The solid line depicts the percentage of surviving HIV-infected cells treated with sample (at the indicated concentration) relative to uninfected, untreated controls. The solid line expresses the in vitro anti-HIV activity of the compound of the tested compound. The dashed line depicts the percentage of surviving uninfected cells treated with the compound of the Example relative to the same uninfected, untreated controls. The dashed line expresses the in vitro growth inhibitory properties of the compound of the Example. The viral cytopathic effect of a compound of each Example is indicated by a combination of dashes and dots. […] Survival values of this parameter less then 50% are considered acceptable in the current protocol.

[2] = Homo sapiens, CCRF-CEM, 144 h, drug-treated uninfected CEM cells, 6 days, XTT, approximate values, one value per run
[3] = drug-treated uninfected CEM cells, 6 days, XTT, approximate values, one value per run
[4] = HIV-infected CEM cells, 6 days, XTT, read-out: EC50 (50% effective concentration, protection in infected cells)
[5] = Human immunodeficiency virus 1, CCRF-CEM, 144 h, HIV-infected CEM cells, 6 days, XTT, read-out: EC50 (50% effective concentration, protection in infected cells)
[6] = Human immunodeficiency virus 1, CCRF-CEM, 144 h, read-out: EC50 (50% effective concentration, protection in infected cells), HIV-infected CEM cells, 6 days, XTT

Row | Compound | IC50 [1, 2] [µM] | IC50 [1, 3] | EC50 (HIV; [5]) [µM] | TI50 (IC/EC), therapeutic index (HIV) | also measured
1 | CCCCCCCCCCCCCCCCCCCCCCCCCCCCCC=C(c1cc(Cl)c(O)c(C(=O)O)c1)c1cc(Cl)c(O)c(C(=O)O)c1 [Formula XI, 1,1-di(3'-ammoniumcarboxy-5'-chloro-4'hydroxy) phenyl-1-untriacontene] | > 222 | > 220 µM | 13.3 | > 1.67 × 10^+1 and > 1.36 × 10^+4 and > 1.90 × 10^+1 and > 2.40 × 10^+1 | EC50 (HIV; [4]): 16.3 µM and 11 µM and 9.3 µM; anti-HIV effect (statement) (HIV): greatest effect on inhibiting HIV-infected cells, while having a lesser effect on uninfected cells
2 | CCCCCC=C(c1cc(Cl)c(OC)c(C(=O)OC)c1)c1cc(Cl)c(OC)c(C(=O)OC)c1 [Formula XXVI, di(3'-carbomethoxy-5'-chloro-4'-methoxy)phenyl-1-heptene] | > 29.1 | > 28.2 µM |  |  | 
3 | CCCCCCCCCCCCCCCCC(c1ccc(O)c(C(=O)O)c1)c1ccc(O)c(C(=O)O)c1 [Formula XXII] |  | 51.4 µM and 119 µM |  | 1.56 × 10^0 and 3.06 × 10^+1 and 3.05 × 10^+1 | EC50 (HIV; [4]): 3.9 µM
4 | COc1c(Cl)cc(C(=Cc2c(F)c(F)c(F)c(F)c2F)c2cc(Cl)c(OC)c(C(=O)O)c2)cc1C(=O)O [Formula XXV] | 434 | 552 µM and 412 µM | 140 |  | EC50 (HIV; [4]): 102 µM and 176 µM
5 | (5α)-3β-[4,4-di(5'-bromo-4'-methoxy-3'-methoxycarbonyl)phenyl-1-buten-3-yl]cholestane [Formula VII] |  | > 280 µM |  |  | 
6 | CCCCCCCCCCCCCCCC=C(c1cc(Cl)c(O)c(C(=O)O)c1)c1cc(Cl)c(O)c(C(=O)O)c1 [Formula XIV, 1,1-di(3'-ammoniumcarboxy-5'-chloro-4'-hydroxy)phenyl-1-heptadecene] | > 35 |  | 4.62 | > 7.57 × 10^0 | 
7 | CCCCCCCCCCC(c1ccc(O)c(C(=O)O)c1)c1ccc(O)c(C(=O)O)c1 [Formula XVIII] | 84.6 |  | 33.2 | 2.55 × 10^0 | 
8 | CCCCCC=C(c1cc(Cl)c(OC)c(C(N)=O)c1)c1cc(Cl)c(OC)c(C(N)=O)c1 [Formula XVI, 1,1-di(3'-carbamoyl-5'-chloro-4'-methoxy)phenyl-1-heptene] | 17.4 | 17.2 µM and 16.3 µM and 13.4 µM |  |  | 
9 | CCCCCCCCCC=C(c1cc(Br)cc(C(=O)O)c1OC)c1cc(Br)cc(C(=O)O)c1OC [Formula XXIII, 1,1-[di-(3'-ammoniumcarboxy-5'-bromo-2'methoxy)phenyl]-1-undecene] | 88.9 | 79.5 µM and 68.3 µM and 69.8 µM |  |  | cytotoxicity (statement) [1]: cytotoxic
10 | C[C@H](CCC=C(c1cc(Cl)c(O)c(C(=O)O)c1)c1cc(Cl)c(O)c(C(=O)O)c1)[C@H]1CC[C@H]2[C@@H]3CC[C@@H]4CC(F)(F)CC[C@]4(C)[C@H]3CC[C@]12C [Formula X, (5β)-3,3-difluoro-17-[5,5-di(3-ammoniumcarboxy-5-chloro-4-hydroxy)phenyl-1-methyl-4-pentenyl]androstane] | 41 |  |  | 1.80 × 10^0 | EC50 (HIV; [6]): 24 µM
11 | CCCCCCCCCCCCCCCC=C(c1cc(Cl)c(OC)c(C(=O)O)c1)c1cc(Cl)c(OC)c(C(=O)O)c1 [Formula XXIV, 1,1-di(3'-carboxy-5'-chloro-4'-methoxy)phenyl-1-heptadecene] | 26.6 | 25.9 µM |  |  | cytotoxicity (statement) [1]: cytotoxic
12 | CC(CCC=C(c1cc(Cl)c(O)c(C(=O)O)c1)c1cc(Cl)c(O)c(C(=O)O)c1)C1CC[C@H]2[C@@H]3CC[C@H]4CCCC[C@]4(C)[C@H]3CC[C@]12C (stereo partly shown) [Formula IX] |  | > 59 µM and > 69 µM and 79 µM |  |  | 
13 | CC(C)CCC[C@@H](C)[C@H]1CC[C@H]2[C@@H]3CC[C@H]4C[C@@H](CCCC(c5cc(Cl)c(O)c(C(=O)O)c5)c5cc(Cl)c(O)c(C(=O)O)c5)CC[C@]4(C)[C@H]3CC[C@]12C [Formula VI, (5α)-3β-[4,4-Di(3'-ammoniumcarboxy-5'-chloro-4'-hydroxy)phenyl-1-butyl]cholestane] |  |  |  | > 1.80 × 10^+1 and > 2.10 × 10^+1 and > 1.30 × 10^+1 and > 1.20 × 10^+1 | IC50 ([1]; Homo sapiens, CCRF-CEM, 144 h): > 310 µM; EC50 (HIV; [6]): 17 µM; anti-HIV effect (statement) (HIV): greatest effect on inhibiting HIV-infected cells, while having a lesser effect on uninfected cells; EC50 (HIV; read-out: EC50 (50% effective concentration, protection in infected cells), HIV-infected CEM cells, 6 days, XTT): 15 µM and 23 µM and 25 µM
14 | CCCCCCCCCC=C(c1cc(Br)c(O)c(C(=O)O)c1)c1cc(Br)c(O)c(C(=O)O)c1 [Formula XX, 1,1-di(3'-ammoniumcarboxy-5'-bromo-4'-hydroxy)phenyl-1-undecene] | > 191 |  | 55.5 | > 3.44 × 10^0 | 
15 | CCCCCC=C(c1cc(Br)cc(C(=O)O)c1OC)c1cc(Br)cc(C(=O)O)c1OC [Formula XXI] | 175 | 244 µM | 97.1 | 1.80 × 10^0 and 3.52 × 10^0 | EC50 (HIV; [4]): 69.3 µM
16 | CCCCCC=C(c1cc(Br)c(OC)c(C(=O)OC)c1)c1cc(Br)c(OC)c(C(=O)OC)c1 [Formula XII, 1,1-di(5'-bromo-3'-carbomethoxy-4'-methoxy)phenyl-1-heptene] | > 8.95 |  |  |  | anti-HIV effect (statement) (HIV): greatest effect on inhibiting HIV-infected cells, while having a lesser effect on uninfected cells; anti-HIV effect (statement) (HIV; listed as structure XII): most effective compounds studied in terms of prevention of the cytopathic effect of HIV in CEM lymphocytes
17 | O=C(O)c1cc(C(=CCCBr)c2cc(Cl)c(O)c(C(=O)O)c2)cc(Cl)c1O [Formula XVII] | 214 | 237 µM and 181 µM and 258 µM | 136 | 1.58 × 10^0 and 1.93 × 10^0 and 1.50 × 10^0 and 2.71 × 10^0 | EC50 (HIV; [4]): 122 µM and 121 µM and 95.1 µM
18 | CCCCCCCCCC=C(c1cc(Cl)c(OC)c(C(=O)O)c1)c1cc(Cl)c(OC)c(C(=O)O)c1 [Formula XXVII, 1,1-di(3'-ammoniumcarboxy-5'-chloro-4'methoxy) phenyl-1-undecene] | 149 | 166 µM and 169 µM |  |  | 
19 | COC(=O)c1cc(C(=CCCBr)c2cc(Cl)c(OC)c(C(=O)OC)c2)cc(Cl)c1OC [Formula XIX, 4-bromo-1,1-di(3'-carbomethoxy-5'-chloro4'-methoxy)phenyl-1-butene] | 21.5 | 15.2 µM | 8.19 | 2.62 × 10^0 and 1.96 × 10^0 | EC50 (HIV; [4]): 7.73 µM
20 | COc1c(Cl)cc(C(=CCC[C@H]2CC[C@@]3(C)[C@@H](CC[C@@H]4[C@@H]3CC[C@]3(C)[C@@H]([C@H](C)CCCC(C)C)CC[C@@H]43)C2)c2cc(Cl)c(OC)c(C(=O)O)c2)cc1C(=O)O [Formula V] |  |  |  |  | IC50 ([1]; Homo sapiens, CCRF-CEM, 144 h): > 300 µM; anti-HIV effect (statement) (HIV): greatest effect on inhibiting HIV-infected cells, while having a lesser effect on uninfected cells
21 | CCCCCC=C(c1cc(Br)cc(C(=O)O)c1O)c1cc(Br)cc(C(=O)O)c1O [Formula XV] | > 21.8 |  | 15.3 | > 1.43 × 10^0 | 
22 | CCCCCCCCCC=C(c1cc(Cl)c(O)c(C(=O)O)c1)c1cc(Cl)c(O)c(C(=O)O)c1 [Formula XIII, 1,1-di(3'-ammoniumcarboxy-5'-chloro-4'-hydroxy)phenyl-1-undecene] | > 49.1 |  | 37.3 | > 1.32 × 10^0 | 
